The source of these data is PMC11475281, “A Novel Liver Cancer-Selective Histone Deacetylase Inhibitor Is Effective against Hepatocellular Carcinoma and Induces Durable Responses with Immunotherapy” (ACS Pharmacology & Translational Science, 2024).

Series [1] relates to Hep-G2-Red-FLuc intrahepatic tumors. Briefly: Orthotopic xenograft model of Hep-G2-Red-FLuc human HCC. It is filed as in vivo, mice. The source says:
Next, we evaluated the effects of STR-V-53 on tumor growth in an orthotopic murine model of Hep-G2-Red-FLuc Bioware Brite Cell Line (PerkinElmer) in mice. Mice (6–8 weeks old) were orthotopically implanted through a direct intrahepatic artery injection with Hep-G2-Red-FLuc cells according to published protocols.[38] We used the Red-Fluc expression to confirm tumor implantation by bioluminescent imaging using IVIS. Treatment began after imaging confirmed the establishment of intrahepatic tumors (approximately 7 days). Mice were grouped into cohorts with similar average relative chemiluminescence. Tumor-bearing mice in the treatment groups were injected daily with 200 μL of solution of STR-V-53, SORA, or a combination of STR-V-53 and SORA for 21 days via the i.p. route. No treatment group received vehicle only. After treatment, mice were imaged again, sacrificed, and liver samples were harvested to determine the effects of treatment on tumor size by measurement with calipers. […] Moreover, the combination therapy of SORA (10 mg/kg) and STR-V-53 (25 mg/kg) is more efficacious than either drug as a standalone agent.
Signaling Technology), respectively, for immunostaining. […]
(Armenian Hamster monoclonal antibody, clone 2H8, Millipore). Positive cells were counted from five random fields for each HCC tissue section. […]
monitored by high-frequency ultrasonography. […]
On the technique in general: Xenograft models place foreign cells or tissue in a host animal.

For the next series, the system named is cytochrome P450. It is filed as in vitro ADME. The following applies: maximum tested concentration of 100 μM.
Another series deals with hERG (Homo sapiens, UniProt Q12809). The experiment in a line: In vitro hERG inhibition assay. The settings on record: maximum tested concentration of 100 μM. Background: The hERG channel carries a current that helps repolarise heart muscle cells.
The next series has as its system Huh-7. The experiment in a line: MTS cell viability assay, 72 h. The following applies: Homo sapiens, Figure 1g, read-out: Anti-proliferation effects IC50 (μM) Huh-7. It is filed as cell-based. The source says:
(§1) We then screened STR-V-53 and all the synthesized glycosylated HDACi for their effects on the viability of three cell lines: A549 (lung adenocarcinoma), Hep-G2 (HCC), and VERO (a normal kidney epithelial cell). We used SORA and STR-V-48, a previously disclosed nonglycosylated compound, as controls.[25] […] Additionally, compound STR-V-167, the peracetylated analog of STR-V-53, largely retained the Hep-G2 selectivity of STR-V-53 (Table S2). Subsequently, we evaluated the effects of STR-V-53 on cell proliferation using a panel of human HCC cell lines (Huh-7, SK-Hep-1, and Hep3B) as well as Kupffer cells (liver resident macrophages) by MTS assay. We observed that STR-V-53 is 7- to 16-fold more cytotoxic against these HCC cell lines relative to the Kupffer cells (Figure 1g). […] Based on their weak HDAC and cell proliferation inhibition activities, we de-emphasized further evaluation of the class III compounds.
(§2) 10-017-CV), supplemented with 10% fetal bovine serum (FBS) (Corning, 35-010-CV). Hep-G2 cells were cultured in phenol red-free Minimum Essential Medium (MEM) (Corning, 17-305-CV), supplemented with 10% fetal bovine serum (FBS). SK-Hep-1 in ATCC-formulated EMEM (ATCC® 30–2003™); Huh-7 in DMEM (containing 4 mM L-glutamine and 1 g/L glucose) with […]
(§3) Kupffer Cell Media (Sekisui XenoTech, LLC, Cat. #K8700). Cells were seeded into a 96-well plate (2000 counts/100uL) for 24 h prior to treatment and then treated with various drug concentrations for 72 h. All drugs were dissolved in media with DMSO concentration maintained at 1%. The effect of compounds on cell viability was measured using the MTS assay (CellTiter 96 Aqueous One Solution and CellTiter 96 Non-Radioactive Cell Proliferation Assays, Promega, Madison, WI) as described by the manufacturer. IC50s were determined using Prism GraphPad 8. […]
On the technique in general: Tetrazolium dyes change colour on reduction, which living cells bring about.

Another series relates to Hep3B. Briefly: MTS cell viability assay, 72 h. The settings on record: Homo sapiens, Figure 1g, read-out: Anti-proliferation effects IC50 (μM) Hep3 B. It is filed as cell-based.
Excerpt: as §1, §2, §3

The subject of another series is SK-Hep-1. Briefly: MTS cell viability assay, 72 h. It is filed as cell-based. The following applies: Homo sapiens, SK-HEP1; Figure 1g; read-out: Anti-proliferation effects IC50 (μM) SK-Hep-1.
Excerpt: as §1, §2, §3

In series [2] the test system is Kupffer cells (liver resident macrophages). Briefly: MTS cell viability assay, 72 h. The format is cell-based. The following applies: Macrophage; Figure 1g; read-out: Anti-proliferation effects IC50 (μM) Kupffer.
Excerpt: as §1, §2, §3

The subject of a further series is Hep-G2 cells. The experiment in a line: Immunoblotting of CD54 (ICAM-1) expression. It is filed as cell-based, human. The following applies: 24 h, STR-V-53 at IC50 and 2× IC50. How it is done: Figure 3 Effects of STR-V-53 on intracellular markers of HDAC inhibition, antitumor immune response, and apoptosis. (a) STR-V-53 upregulates the levels of acetylated H4 and tubulin in Hep-G2 cells. Hep-G2 cells were treated with DMSO or 0.1% DMSO solution of SAHA (1.25 μM) and STR-V-53 (1.25 μM, 2.5 μM). Cells were treated for 5 h before lysis. Data are from two independent experiments. (b) STR-V-53 upregulates PD-L1 and downregulates PD-1 expressions in Hep-G2 cells. Cells were treated with DMSO or 0.1% DMSO solution of SAHA (5 μM and 10 μM) and STR-V-53 (10 and 20 μM) for 24 h. (c) STR-V-53 and SAHA caused upregulation of the levels of CD54 in the Hep-G2 cell line. Cells were treated with DMSO or 0.1% DMSO solution of SAHA (5 and 10 μM) and STR-V-53 (5, 10, and 20 μM) for 24 h. […] Cells were treated with DMSO or 0.1% DMSO solution of SAHA (5 μM) and STR-V-53 (10 and 20 μM).
HDACi regulates the expression levels of other tumor antigens such as CD40, CD54 (ICAM-1), CD80, and CD86 in tumor cells.[32]−[35] More specifically, the repression of CD54 expression is another strategy tumors use to escape the immune response.[36] […] To investigate the effect of our glycosylated HDACi on the expression of CD54, we incubated Hep-G2 cells with STR-V-53 at IC50 and 2× IC50 for 24 h. We used immunoblotting to determine the effect of this treatment on CD54 expression. […]

Molecules are shown by their SMILES.

hERG, sequence (Q12809 whole entry): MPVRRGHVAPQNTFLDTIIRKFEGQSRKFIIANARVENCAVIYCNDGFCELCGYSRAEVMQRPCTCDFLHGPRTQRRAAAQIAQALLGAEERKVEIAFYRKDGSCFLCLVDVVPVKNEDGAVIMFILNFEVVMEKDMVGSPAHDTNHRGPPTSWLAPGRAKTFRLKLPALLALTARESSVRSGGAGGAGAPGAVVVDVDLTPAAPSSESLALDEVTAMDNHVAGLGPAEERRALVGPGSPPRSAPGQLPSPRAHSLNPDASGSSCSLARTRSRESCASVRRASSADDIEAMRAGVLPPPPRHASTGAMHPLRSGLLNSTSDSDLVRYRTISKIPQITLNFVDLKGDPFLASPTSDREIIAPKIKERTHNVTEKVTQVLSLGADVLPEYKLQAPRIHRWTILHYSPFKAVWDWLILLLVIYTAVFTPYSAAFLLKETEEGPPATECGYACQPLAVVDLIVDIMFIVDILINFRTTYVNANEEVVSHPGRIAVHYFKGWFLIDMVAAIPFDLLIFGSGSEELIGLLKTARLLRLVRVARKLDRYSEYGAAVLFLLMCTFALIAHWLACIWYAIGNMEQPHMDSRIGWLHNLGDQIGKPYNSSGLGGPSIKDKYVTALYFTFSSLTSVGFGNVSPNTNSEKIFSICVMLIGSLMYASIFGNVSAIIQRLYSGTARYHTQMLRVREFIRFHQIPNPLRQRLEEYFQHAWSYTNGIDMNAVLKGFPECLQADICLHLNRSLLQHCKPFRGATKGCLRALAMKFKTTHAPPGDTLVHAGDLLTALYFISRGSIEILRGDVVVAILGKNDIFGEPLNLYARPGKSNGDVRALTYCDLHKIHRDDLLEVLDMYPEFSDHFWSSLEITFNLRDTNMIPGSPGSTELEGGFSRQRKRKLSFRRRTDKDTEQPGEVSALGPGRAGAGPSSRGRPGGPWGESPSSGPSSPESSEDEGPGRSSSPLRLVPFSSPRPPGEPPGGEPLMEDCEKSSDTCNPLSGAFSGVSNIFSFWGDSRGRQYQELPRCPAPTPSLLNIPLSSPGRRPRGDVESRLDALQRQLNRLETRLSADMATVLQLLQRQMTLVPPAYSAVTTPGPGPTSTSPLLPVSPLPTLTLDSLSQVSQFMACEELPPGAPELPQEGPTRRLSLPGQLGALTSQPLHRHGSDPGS
Excerpt for RIL-175 murine HCC: (d) Body weight change of tumor-bearing mice in the four treatment groups.
Next, we evaluated the in vivo efficacy of STR-V-53 alone or combined with an anti-PD1
antibody in a p53-null murine HCC model.
into the subcapsular region of the liver parenchyma in C57Bl/6 mice, and tumor growth was
monitored by high-frequency ultrasonography. When tumors reached ~5 mm in diameter, mice
were randomly assigned to one of the four treatment groups (n=12 mice): DMA/ CRH/Water
(10%/20%/70%) (control), STR-V-53 (25mg/kg daily by i.p. for 3 weeks), anti-PD1 antibody
(10mg/kg thrice a week for 3 weeks), or combination of STR-V-53 and anti-PD1 antibody. Anti-
PD1 antibody treatment was administered i.p. for a total of 9 injections. Tumor growth and body
weight were measured every three days by ultrasound imaging, and tumor size was calculated as
0.5×length×width2. Per protocol, moribund status was used as the endpoint, and moribundity
the starting date, body condition score of more than 2, and tumor size of more than 15 mm in
diameter. Data were processed using GraphPad Prism 8, and survival analysis was performed

Consider `O=C(CCCCCCn1cc(-c2ccc(O[C@H]3O[C@H](CO)[C@@H](O)[C@H](O)[C@H]3O)cc2)nn1)NO` [STR-V-53], for which the results for the “Tumor growth inhibition (TGI)” value in [1] (25 mg/kg daily i.p. for 21 days) and in series [1] (50 mg/kg daily i.p. for 21 days) were 60% and 68%, respectively. The “Cytochrome P450 inhibition” value with cytochrome P450 is on record as “no inhibition”. Further, the “Body weight change of tumor-bearing mice (weight loss)” value with RIL-175 murine HCC (RIL-175 model, 12 mice per group) is recorded as 4/12. Moreover, in the series on RIL-175 murine HCC (RIL-175 model, n = 12), the Tumor growth entry is “minor effect on tumor growth”. The “Overall survival (Kaplan–Meier)” value in the series with RIL-175 murine HCC (RIL-175 model, n = 12, vs IgG control) is on record as “no impact on survival”. Further, in the series with RIL-175 murine HCC (RIL-175 tumor-bearing mice), the “Overt toxicity during the treatment period” value is on record as “no significant overt toxicity”. On hERG, the hERG inhibition entry was “no inhibition”. The IC50 was 6.25 µM in the series on Huh-7, 11.1 µM in the series on Hep3B, 13.9 µM with SK-Hep-1 and above 100 µM in series [2]. In addition, the CD54 expression entry with Hep-G2 cells is given as “upregulated”.

On to `O=C(CCCCCCC(=O)Nc1ccccc1)NO` [SAHA, vorinostat, reference compound], for which the CD54 expression result in the series on Hep-G2 cells is reported as “upregulated”.
